Measurements taken from publication PMC8954792 (Viruses, 2022).

Legend:
EBOV (Sudan) = test: microbe, parasite or virus in culture; type: cell-based, Ebola virus
HIV-1 Bal.01 PsV [1] = test: HIV-1 PsV inhibition in presence of recombinant unilamellar liposomes; type: cell-based; details: compared with the PBS group
authentic HCoV-OC43 = test: CPE reduction assay, authentic HCoV-OC43; type: cell-based; details: HCoV-OC43 infection, RD cells, CCK-8
[2] = tested on: authentic ZIKV PRVABC59 (2015/Puerto Rico); test: microbe, parasite or virus in culture; type: cell-based; details: read-out: IC50
NiV = test: microbe, parasite or virus in culture; type: cell-based, Nipah virus
[3] = tested on: authentic IAV H3N2 (A/Victoria/361/2011); type: cell-based, influenza virus
HIV-1 Bal.01 PsV [4] = test: Sucrose density gradient assay to evaluate viral inactivation; details: HIV-1 Bal.01 PsV treated with 50 μM at 37 °C for 2 h
HPV PsV = type: cell-based, human papilloma virus
EBOV (Zaire) = test: microbe, parasite or virus in culture; type: cell-based, Ebola virus
H7N9 PsV = test: microbe, parasite or virus in culture; type: cell-based, influenza virus; details: read-out: IC50 H7N9
cell-free SARS-CoV-2 PsV = test: Inactivation of cell-free SARS-CoV-2 PsV; type: cell-based
authentic EV71 = test: CPE reduction assay, authentic EV71; type: cell-based, human enterovirus 71 virus; details: RD cells
Vero E6 cells = type: cell-based
SARS-CoV-2 PsV = type: cell-based
hACE2-293T cells = test: Cytotoxicity (CCK-8) on hACE2-293T cells
Huh-7 cells = test: Cytotoxicity (CCK-8) on Huh-7 cells
HIV-1 6-HB = HIV-1 6-HB (Human immunodeficiency virus type 1, UniProt P04578); test: Inhibition of HIV-1 6-HB formation (ELISA); type: biochemical; details: HIV-1 6-HB formation measured by ELISA
HIV-1 6-HB, sequence (P04578 536-581, added parts left off): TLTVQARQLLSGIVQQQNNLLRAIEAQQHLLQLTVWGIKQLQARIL
HIV-1 6-HB, sequence (P04578 536-581, added parts left off): as above

H5N1 PsV = test: microbe, parasite or virus in culture; type: cell-based, influenza virus; details: read-out: IC50 H5N1
[5] = tested on: authentic IAV H1N1 (A/California/04/2009); type: cell-based, influenza virus
VSV PsV = test: microbe, parasite or virus in culture; type: cell-based, vesicular stomatitis virus; details: read-out: IC50
LASV = test: organism not typed; type: cell-based, Lassa fever virus

O=C(O)c1cc(-c2ccc(C=C3SC(=S)N(CCc4ccccc4)C3=O)o2)ccc1Cl [FD001, furanyl methylidene rhodanine]
CC50 (MDCK cells): > 50000 nM
IC50 (EBOV (Sudan)): 390 ± 40 nM
EC50 (cell-free SARS-CoV PsV): 1580 ± 210 nM
SI CC50/EC50 (cell-free SARS-CoV PsV): 18.25
antiviral activity, liposomes added to HIV-1 PsV pretreated with compound (HIV-1 Bal.01 PsV [1]): good antiviral activity
inhibitory activity against HIV-1 PsV, compound pretreated with liposomes (HIV-1 Bal.01 PsV [1]): no different from that of the PBS group
IC50 (SARS-CoV PsV): 180 ± 20 nM
SI CC50/IC50 (SARS-CoV PsV): 160.22
IC50 (authentic HCoV-OC43): 480 nM
IC50 [2]: 4360 nM
EC50 (cell-free MERS-CoV PsV): 1120 ± 160 nM
SI CC50/EC50 (cell-free MERS-CoV PsV): 38.08
IC50 (NiV): 410 ± 70 nM
inhibition of authentic IAV H3N2 infection [3]: inhibited
integrity of the viral membrane (band distribution of p24) (HIV-1 Bal.01 PsV [4]): did not disrupt the integrity of the viral membrane
inhibition of infection of nonenveloped HPV PsV (HPV PsV): could not inhibit
IC50 (EBOV (Zaire)): 1040 ± 110 nM
IC50 (H7N9 PsV): 850 ± 210 nM
EC50 (cell-free SARS-CoV-2 PsV): 670 nM
inhibition of infection of authentic EV71 (authentic EV71): could not inhibit
fluorescence intensity of treated cells (binding to cells) (Vero E6 cells): positively correlated with compound concentration
inhibition of SARS-CoV-2 PsV infection after unbound compound washed from cells (SARS-CoV-2 PsV): not effective in inhibiting viral infection after washing
CC50 (hACE2-293T cells): 28800 ± 1240 nM
CC50 (Huh-7 cells): 42600 ± 1310 nM
IC50 (HIV-1 6-HB): 17400 nM
IC50 (H5N1 PsV): 260 ± 30 nM
inhibition of authentic IAV H1N1 infection [5]: inhibited
IC50 (MERS-CoV PsV): 290 ± 30 nM
SI CC50/IC50 (MERS-CoV PsV): 147.07
IC50 (VSV PsV): 20 nM
IC50 (LASV): 440 ± 100 nM
